In patent publication US10722520B2, “Heterocyclic compounds and their use in preventing or treating bacterial infections” (MUTABILIS, priority 2016, dated 2020):
Structures can show the parent of a compound that is named as a salt. Where two headings read alike, the source gives them in different places.

Assays:
[1] = target: KPC-2 (Klebsiella pneumoniae, UniProt Q9F663)
[2] = target: SHV-1 (Klebsiella pneumoniae, UniProt P0AD64)
[3] = target: CMY-37 (Citrobacter freundii, UniProt P05193); settings: read-out: IC50 β-lactamase CMY-37
[4] = target: AmpC (PAE) (Pseudomonas aeruginosa, UniProt P24735); test: biochemical
[5] = test system: E. cloacae P99; test: MIC of compound alone, broth microdilution; assay type: cell-based; settings: Enterobacter cloacae; strain P99; compound alone; read-out: MIC compounds of the invention alone
Protocol: (§1) Log phase bacterial suspensions were adjusted to a final density of 5×10^5 cfu/mL in cation-adjusted Mueller-Hinton broth (Becton-Dickinson) and added to each well (98 μL). Microplates were incubated for 16-20 h at 35° C. in ambient air. The MIC of the compounds was defined as the lowest concentration of said compounds that prevented bacterial growth as read by visual inspection.

[6] = test system: K. pneumoniae BAA-1898; test: MIC of compound alone, broth microdilution; assay type: cell-based; settings: Klebsiella pneumoniae, BAA1898; strain BAA-1898; compound alone; read-out: MIC compounds of the invention alone
Protocol: as §1

[7] = test system: K. pneumoniae 6299; test: MIC of compound alone, broth microdilution; assay type: cell-based; settings: Klebsiella pneumoniae; strain 6299; compound alone; read-out: MIC compounds of the invention alone
Protocol: as §1

[8] = test system: E. coli 190317; test: MIC of compound alone, broth microdilution; assay type: cell-based; settings: Escherichia coli; strain 190317; compound alone; read-out: MIC compounds of the invention alone
Protocol: as §1

[9] = test system: P. aeruginosa CIP107051; test: MIC of compound alone, broth microdilution; assay type: cell-based; settings: Pseudomonas aeruginosa; strain CIP107051; compound alone; read-out: MIC compounds of the invention alone
Protocol: as §1

[10] = target: CTX-M-15 (Escherichia coli, UniProt Q9EXV5)
[11] = target: OXA-15 (Pseudomonas aeruginosa, UniProt Q51574); test: biochemical
[12] = target: TEM-1 (Escherichia coli, UniProt P62593)
[13] = target: OXA-48 (Klebsiella pneumoniae, UniProt Q6XEC0)
[14] = target: AmpC (P99) (Enterobacter cloacae, UniProt P05364); test: biochemical
[15] = target: OXA-11 (Pseudomonas aeruginosa, UniProt Q06778)
[16] = target: OXA-1 (Escherichia coli, UniProt P13661)
[17] = class (C), nitrocefin 200 μM, 30-min pre-incubation, enzyme 0.2 nM

CC(=O)c1ccn(C2=CC3CN(C2)C(=O)N3OS(=O)(=O)[O-])n1.[Na+] (stereo not drawn) [Example 28, sodium (7-oxo-3-(3-acetylpyrazol-1-yl)-1,6-diazabicyclo[3.2.1]oct-3-en-6-yl) sulfate]
IC50 [1]: 4.8 nM | IC50 [2]: 2.2 nM | IC50 [3]: 37 nM | IC50 [4]: 200 nM | MIC [5]: > 32 µg/mL | MIC [6]: > 32 µg/mL | MIC [7]: > 32 µg/mL | MIC [8]: 16 µg/mL | MIC [9]: > 32 µg/mL | IC50 [10]: 0.5 nM | IC50 [11]: 30 nM | IC50 [12]: 0.37 nM | IC50 [13]: 3.8 nM | IC50 [14]: 10 nM | IC50 [15]: 29 nM | IC50 [16]: 64 nM

O=C(NC1CCNCC1)c1ccn(C2=CC3CN(C2)C(=O)N3OS(=O)(=O)O)n1 (stereo not drawn) [Example 32, (7-oxo-3-[3-(4-piperidylcarbamoyl)pyrazol-1-yl]-1,6-diazabicyclo[3.2.1]oct-3-en-6-yl) hydrogen sulfate]
IC50 [1]: 6.9 nM | IC50 [2]: 8.2 nM | IC50 [3, 17]: 59 nM | IC50 [4]: 210 nM | MIC [5]: 16 µg/mL | MIC [6]: 16 µg/mL | MIC [7]: 32 µg/mL | MIC [8]: 8 µg/mL | MIC [9]: > 32 µg/mL | IC50 [10]: 1 nM | IC50 [11]: 39 nM | IC50 [12]: 1.1 nM | IC50 [13]: 1.5 nM | IC50 [14]: 29 nM | IC50 [15]: 27 nM | IC50 [16]: 79 nM

O=C(Nc1ccn(C2=CC3CN(C2)C(=O)N3OS(=O)(=O)[O-])n1)c1nccs1.[Na+] (stereo not drawn) [Example 34, sodium {7-oxo-3-[3-(thiazole-2-carbonylamino)pyrazol-1-yl]-1,6-diazabicyclo[3.2.1]oct-3-en-6-yl}sulfate]
IC50 [1]: 8.5 nM | IC50 [2]: 3.1 nM | IC50 [3]: 6.2 nM | IC50 [4]: 56 nM | MIC [5]: > 32 µg/mL | MIC [6]: > 32 µg/mL | MIC [7]: > 32 µg/mL | MIC [8]: > 32 µg/mL | MIC [9]: > 32 µg/mL | IC50 [10]: 0.92 nM | IC50 [11]: 34 nM | IC50 [12]: 1 nM | IC50 [13]: 9.4 nM | IC50 [14]: 10 nM | IC50 [15]: 13 nM | IC50 [16]: 130 nM

O=C(Nc1ncco1)c1ccn(C2=CC3CN(C2)C(=O)N3OS(=O)(=O)[O-])n1.[Na+] (stereo not drawn) [Example 37, sodium [7-oxo-3-[3-(oxazol-2-ylcarbamoyl)pyrazol-1-yl]-1,6-diazabicyclo[3.2.1]oct-3-en-6-yl]sulfate]
IC50 [1]: 2.9 nM | IC50 [2]: 3.2 nM | IC50 [3]: 15 nM | IC50 [4]: 200 nM | MIC [5]: > 32 µg/mL | MIC [6]: > 32 µg/mL | MIC [7]: > 32 µg/mL | MIC [8]: 8 µg/mL | MIC [9]: > 32 µg/mL | IC50 [10]: 0.46 nM | IC50 [11]: 32 nM | IC50 [12]: 0.5 nM | IC50 [13]: 2.5 nM | IC50 [14]: 9.7 nM | IC50 [15]: 21 nM | IC50 [16]: 73 nM

NCCNC(=O)c1cnn(C2=CC3CN(C2)C(=O)N3OS(=O)(=O)O)c1 (stereo not drawn) [Example 38, [3-[4-(2-aminoethylcarbamoyl)pyrazol-1-yl]-7-oxo-1,6-diazabicyclo[3.2.1]oct-3-en-6-yl]hydrogen sulfate]
IC50 [1]: 7.5 nM | IC50 [2]: 2.5 nM | IC50 [3, 17]: 38 nM | IC50 [4]: 210 nM | MIC [5]: 16 µg/mL | MIC [6]: > 32 µg/mL | MIC [7]: > 32 µg/mL | MIC [8]: 4 µg/mL | MIC [9]: 32 µg/mL | IC50 [10]: 0.7 nM | IC50 [11]: 17 nM | IC50 [12]: 0.43 nM | IC50 [13]: 3.2 nM | IC50 [14]: 34 nM | IC50 [15]: 50 nM | IC50 [16]: 180 nM

CC(=O)c1cnn(C2=CC3CN(C2)C(=O)N3OS(=O)(=O)[O-])c1.[Na+] (stereo not drawn) [Example 40, sodium [3-(4-acetylpyrazol-1-yl)-7-oxo-1,6-diazabicyclo[3.2.1]oct-3-en-6-yl]sulfate]
IC50 [1]: 3.4 nM | IC50 [2]: 1.8 nM | IC50 [3]: 8.3 nM | IC50 [4]: 260 nM | MIC [5]: > 32 µg/mL | MIC [6]: > 32 µg/mL | MIC [7]: > 32 µg/mL | MIC [8]: 32 µg/mL | MIC [9]: > 32 µg/mL | IC50 [10]: 0.91 nM | IC50 [11]: 8.6 nM | IC50 [12]: 0.35 nM | IC50 [13]: 6.3 nM | IC50 [14]: 7.5 nM | IC50 [15]: 95 nM | IC50 [16]: 150 nM

NCCc1cnn(C2=CC3CN(C2)C(=O)N3OS(=O)(=O)O)c1 (stereo not drawn) [Example 41, [3-[4-(2-aminoethyl)pyrazol-1-yl]-7-oxo-1,6-diazabicyclo[3.2.1]oct-3-en-6-yl]hydrogen sulfate]
IC50 [1]: 57 nM | IC50 [2]: 4.5 nM | IC50 [3, 17]: 21 nM | IC50 [4]: 88 nM | MIC [5]: 4 µg/mL | MIC [6]: > 32 µg/mL | MIC [7]: > 32 µg/mL | MIC [8]: 2 µg/mL | MIC [9]: 32 µg/mL | IC50 [10]: 0.91 nM | IC50 [11]: 40 nM | IC50 [12]: 0.58 nM | IC50 [13]: 8.9 nM | IC50 [14]: 36 nM | IC50 [15]: 180 nM | IC50 [16]: 750 nM

O=C1N2CC(n3cc(N4CCNCC4)cn3)=CC(C2)N1OS(=O)(=O)O (stereo not drawn) [Example 42, 2,2,2-trifluoroacetate [7-oxo-3-(4-piperazin-4-ium-1-ylpyrazol-1-yl)-1,6-diazabicyclo[3.2.1]oct-3-en-6-yl]hydrogen sulfate]
IC50 [1]: 76 nM | IC50 [2]: 1.5 nM | IC50 [3, 17]: 59 nM | IC50 [4]: 180 nM | MIC [5]: 16 µg/mL | MIC [6]: > 32 µg/mL | MIC [7]: > 32 µg/mL | MIC [8]: 4 µg/mL | MIC [9]: > 32 µg/mL | IC50 [10]: 0.47 nM | IC50 [11]: 34 nM | IC50 [12]: 0.31 nM | IC50 [13]: 9.1 nM | IC50 [14]: 86 nM | IC50 [15]: 850 nM | IC50 [16]: 1600 nM

[2H]c1nn(C2=CC3CN(C2)C(=O)N3OS(=O)(=O)[O-])c([2H])c1[2H].[Na+] (stereo not drawn) [Example 43, sodium [7-oxo-3-(3,4,5-trideuteriopyrazol-1-yl)-1,6-diazabicyclo[3.2.1]oct-3-en-6-yl]sulfate]
IC50 [1]: 29 nM | IC50 [2]: 3.6 nM | IC50 [3]: 6.4 nM | IC50 [4]: 9.4 nM | MIC [5]: 4 µg/mL | MIC [6]: 8 µg/mL | MIC [7]: 8 µg/mL | MIC [8]: 1 µg/mL | MIC [9]: > 32 µg/mL | IC50 [10]: 0.87 nM | IC50 [11]: 140 nM | IC50 [12]: 0.85 nM | IC50 [13]: 6 nM | IC50 [14]: 12 nM | IC50 [15]: 39 nM | IC50 [16]: 98 nM

O=C1N2CC(n3ncnn3)=CC(C2)N1OS(=O)(=O)[O-].[Na+] (stereo not drawn) [Example 44, sodium [7-oxo-3-(tetrazol-2-yl)-1,6-diazabicyclo[3.2.1]oct-3-en-6-yl]sulfate]
IC50 [1]: 7.3 nM | IC50 [2]: 3.3 nM | IC50 [3]: 26 nM | IC50 [4]: 150 nM | MIC [5]: 4 µg/mL | MIC [6]: 4 µg/mL | MIC [7]: 4 µg/mL | MIC [8]: 1 µg/mL | MIC [9]: > 32 µg/mL | IC50 [10]: 0.86 nM | IC50 [11]: 32 nM | IC50 [12]: 0.48 nM | IC50 [13]: 0.29 nM | IC50 [14]: 13 nM | IC50 [15]: 20 nM | IC50 [16]: 36 nM

NC(=O)Cc1ccn(C2=CC3CN(C2)C(=O)N3OS(=O)(=O)[O-])n1.[Na+] (stereo not drawn) [Example 45, sodium [3-[3-(2-amino-2-oxo-ethyl)pyrazol-1-yl]-7-oxo-1,6-diazabicyclo[3.2.1]oct-3-en-6-yl]sulfate]
IC50 [1]: 47 nM | IC50 [2]: 4.5 nM | IC50 [3]: 19 nM | IC50 [4]: 66 nM | MIC [5]: 16 µg/mL | MIC [6]: 32 µg/mL | MIC [7]: > 32 µg/mL | MIC [8]: 4 µg/mL | MIC [9]: > 32 µg/mL | IC50 [10]: 1.3 nM | IC50 [11]: 310 nM | IC50 [12]: 1.4 nM | IC50 [13]: 18 nM | IC50 [14]: 32 nM | IC50 [15]: 92 nM | IC50 [16]: 300 nM

NCCONC(=O)c1ccn(C2=CC3CN(C2)C(=O)N3OS(=O)(=O)O)n1 (stereo not drawn) [Example 46, [3-[3-(2-aminoethoxycarbamoyl)pyrazol-1-yl]-7-oxo-1,6-diazabicyclo[3.2.1]oct-3-en-6-yl]hydrogen sulfate]
IC50 [1]: 11 nM | IC50 [2]: 4 nM | IC50 [3, 17]: 16 nM | IC50 [4]: 160 nM | MIC [5]: 16 µg/mL | MIC [6]: 16 µg/mL | MIC [7]: > 32 µg/mL | MIC [8]: 2 µg/mL | MIC [9]: > 32 µg/mL | IC50 [10]: 0.7 nM | IC50 [11]: 170 nM | IC50 [12]: 0.89 nM | IC50 [13]: 3.9 nM | IC50 [14]: 25 nM | IC50 [15]: 49 nM | IC50 [16]: 140 nM
